This is an account of results in patent publication US9408921B2, “Antineoplastic hydrogels, and enzyme-instructed preparations thereof” (Brandeis University, priority 2009, dated 2016).

Where “and” joins values, the source holds several entries; their conditions need not be identical. Equal entries are not always repeated. Entries after “also recorded” stand apart in the source; their conditions may differ. Where a SMILES comes first, the peptide text is derived from it. [ ]: non-standard residue; d: D form. The star is where a group is joined. Paclitaxel(2'-O-succinyl) = CC(=O)O[C@H]1C(=O)[C@@]2(C)[C@H]([C@H](OC(=O)c3ccccc3)[C@]3(O)C[C@H](OC(=O)[C@H](OC(=O)CCC(=O)*)[C@@H](NC(=O)c4ccccc4)c4ccccc4)C(C)=C1C3(C)C)[C@]1(OC(C)=O)CO[C@@H]1C[C@@H]2O; Acetyl(2-naphthyl) = O=C(Cc1ccc2ccccc2c1)*; pY = N[C@@H](Cc1ccc(OP(=O)(O)O)cc1)C(=O)O A value given as a limit tells only on which side of the number the result lay.

Data set [1] can be described thus: stability in water and in gel state. It is filed as physicochemical. The text has this: Nicolaou, K. C.; Guy, R. K.; Pitsinos, E. N.; Wrasidlo, W. Angew. Chem. Intl. Ed.
Data set [2] deals with HeLa cells. The data set can be described thus: cytotoxicity against HeLa cells. The text has this:
To evaluate the activity of 5a, it was used to treat HeLa cells; paclitaxel (1) was used as the control.

Data set [3] in a line: solubility. It is filed as physicochemical.

Usually IC50 stands for the concentration that gives 50% inhibition. By solubility is commonly meant the concentration that dissolves in the medium under given conditions. For `CC(=O)O[C@H]1C(=O)[C@@]2(C)[C@H]([C@H](OC(=O)c3ccccc3)[C@]3(O)C[C@H](OC(=O)[C@H](OC(=O)CCC(=O)NCCCC[C@H](NC(=O)[C@H](Cc4ccccc4)NC(=O)[C@H](Cc4ccccc4)NC(=O)Cc4ccc5ccccc5c4)C(=O)N[C@@H](Cc4ccc(OP(=O)(O)O)cc4)C(=O)O)[C@@H](NC(=O)c4ccccc4)c4ccccc4)C(C)=C1C3(C)C)[C@]1(OC(C)=O)CO[C@@H]1C[C@@H]2O` [Compound 5a] ({Acetyl(2-naphthyl)}-FFK(Paclitaxel(2'-O-succinyl))[pY]-OH), in data set [1] (in water, without a phosphatase), the stability in water result is “hardly any dephosphorylation over months”. In data set [2] (HeLa cells, 48 h of incubation), the IC50 turned out to be 9.97 ± 2.05 nM. In addition, the solubility in data set [3] (100 mM phosphate buffered saline (PBS) solution) is 7600 µg/mL and 4260 µM.

Take `CC(=O)O[C@H]1C(=O)[C@@]2(C)[C@H]([C@H](OC(=O)c3ccccc3)[C@]3(O)C[C@H](OC(=O)[C@H](OC(=O)CCC(=O)NCCCC[C@H](NC(=O)[C@H](Cc4ccccc4)NC(=O)[C@H](Cc4ccccc4)NC(=O)Cc4ccc5ccccc5c4)C(=O)N[C@@H](Cc4ccc(O)cc4)C(=O)O)[C@@H](NC(=O)c4ccccc4)c4ccccc4)C(C)=C1C3(C)C)[C@]1(OC(C)=O)CO[C@@H]1C[C@@H]2O` [Compound 5b] ({Acetyl(2-naphthyl)}-FFK(Paclitaxel(2'-O-succinyl))Y-OH): the “stability in gel state” value in data set [1] (gel state, mass spectroscopic (MS) analysis) is “stable in gel state over weeks”. This compound also gave an IC50 in data set [2] (HeLa cells, 48 h of incubation) of 51.4 ± 7.69 nM. Besides, in data set [3] (in water), the solubility was 21.6 µg/mL and 12.7 µM.

On to `NCCCC[C@H](NC(=O)[C@H](Cc1ccccc1)NC(=O)[C@H](Cc1ccccc1)NC(=O)Cc1ccc2ccccc2c1)C(=O)N[C@@H](Cc1ccc(OP(=O)(O)O)cc1)C(=O)O` [Compound 4, NapFFKYp] ({Acetyl(2-naphthyl)}-FFK[pY]-OH), for which the cytotoxicity in words entry in data set [2] (HeLa cells) is given as “essentially biocompatible; also recorded: very limited toxicity”. Further, in data set [2] (HeLa cells, 48 h, highest concentration tested 500 μM), the concentration for half-maximal inhibition (IC50) is above 500000 nM.

For `CC(=O)O[C@H]1C(=O)[C@@]2(C)[C@H]([C@H](OC(=O)c3ccccc3)[C@]3(O)C[C@H](OC(=O)[C@H](O)[C@@H](NC(=O)c4ccccc4)c4ccccc4)C(C)=C1C3(C)C)[C@]1(OC(C)=O)CO[C@@H]1C[C@@H]2O` [Compound 1, Paclitaxel, reference compound], the IC50 in data set [2] (Homo sapiens, HeLa, 48 h) worked out at 47.3 ± 2.99 nM.
